Laboratory results taken from patent US20160297830A1, “NOVEL COMPOUNDS USEFUL FOR THE TREATMENT OF BACTERIAL INFECTIOUS DISEASES” (GALAPAGOS NV, priority 2013, published 2016).
≈ marks a conversion by molar mass, not a printed value. Like-named read-outs stand apart in the source and are kept apart here.

Tests used:
[1] = test system: E. coli Ec113 efflux pump KO; assay: microbe, parasite or virus in culture; type: cell-based; settings: Escherichia coli, read-out: MIC Ec113 efflux pump KO
[2] = test system: Methicillin Resistant S. aureus (MRSA); assay: Neutropenic mouse thigh infection model; settings: Thigh Sa
[3] = test system: H. influenza Hi106 ATCC 51907; assay: organism not typed; type: cell-based; settings: read-out: MIC Hi106
[4] = test system: S. aureus Sa2 clinical strain NCIMB 41953, MRSA; assay: microbe, parasite or virus in culture; type: cell-based; settings: Staphylococcus aureus, read-out: MIC Sa2
[5] = test system: E. coli Ec50 efflux pump KO; assay: microbe, parasite or virus in culture; type: cell-based; settings: Escherichia coli, read-out: MIC Ec50 efflux pump KO
[6] = test system: S. aureus Sa1 ATCC 13709; assay: microbe, parasite or virus in culture; type: cell-based; settings: Staphylococcus aureus
[7] = target: DNA Polymerase IIIα (DnaE) from Staphylococcus aureus (Staphylococcus aureus, UniProt Q6GG04); assay: biochemical
[8] = test system: S. aureus Sa4 NCTC 6571; assay: Antibacterial activity assay (MIC), S. aureus Sa4; type: cell-based; settings: Staphylococcus aureus
[9] = test system: H. influenza Hi3 ATCC 31517; assay: organism not typed; type: cell-based; settings: read-out: MIC Hi3
[10] = target: DNA III Polymerase E (Escherichia coli, UniProt P10443); assay: In vitro activity against DNA III Polymerase E, E. coli; type: biochemical
Experimental: A radioactive filterplate assay was used to assess inhibitory activity of compounds on DNA Polymerase IIIα. Five μL of a dilution series of compound, starting from 100 μM highest concentration, 1/5 dilution, was added to the wells of a 96 well plate. Recombinant enzyme was diluted to 0.47 μg/mL in a buffer containing 20 mM Tris pH7.5, 8 mM DTT, 10 mM MgOAc, 0.05% CHAPS and 10 μL thereof was added to the compound dilutions. The reaction was started with the addition of 10 μL substrate in the same buffer, containing activated calf thymus DNA (Sigma, D4522), dATP, dGTP, dCTP, dTTP (Invitrogen) and [α-33P]-dTTP (Perkin Elmer, NEG605H001) at a concentration of 62.5 μg/mL, 50 nM and 7.5 μCi/mL respectively. The mixture was incubated at 30° C. for 120 minutes and terminated by addition of phosphoric acid. Samples were transferred to filter plates and incorporated radioactivity was measured by the Topcount. Data were converted to percent inhibition with respect to positive and negative controls. IC50 values were calculated using Graph Prism™ software.

[11] = test system: H. influenza Hi47 clinical strain, Ampicillin Resistant; assay: organism not typed; type: cell-based; settings: read-out: MIC Hi47
[12] = test system: E. coli Ec1 ATCC 25922; assay: Antibacterial activity assay (MIC), E. coli Ec1; type: cell-based; settings: Escherichia coli
[13] = test system: S. aureus Sa26 ATCC 25923; assay: Antibacterial activity assay (MIC), S. aureus Sa26; type: cell-based; settings: Staphylococcus aureus
[14] = test system: H. influenza Hi10 clinical strain; assay: organism not typed; type: cell-based; settings: read-out: MIC Hi10
[15] = test system: Methicillin Resistant S. aureus Sa2 (MRSA); assay: animal or person; type: in vivo; settings: lung
[16] = test system: Methicillin Resistant S. aureus Sa2 (MRSA); type: in vivo; settings: Groin Sa, Study 2; 50 mg/kg PO BID; sample time 31 h post infection
[17] = Study 1, 100 mg/kg IP BID, sample time 7 h PI
[18] = DNA polymerase III, E. coli, read-out: IC50 semiquantitative scoring, E. coli
[19] = ATCC25923, read-out: MIC Sa26 + 10% SH
[20] = ATCC25923, read-out: MIC Sa26 + 50% SH
[21] = Study 9, 50 mg/kg PO BID, sample time 24 h PI
[22] = Staphylococcus aureus, MRSA, in Mus musculus, po, 24 h, read-out: Log reduction vs. untreated, Study 3, 50 mg/kg PO BID, sample 24 h post infection
[23] = Study 3, 50 mg/kg PO BID, sample 24 h post infection
[24] = ATCC13709, S. aureus Sa1 ATCC 13709, sensitive strain, Mueller-Hinton Broth, 37° C., read-out: MIC Sa1
[25] = NCTC6571, S. aureus Sa4 NCTC 6571, sensitive strain, read-out: MIC Sa4
[26] = ATCC25922, E. coli Ec1 ATCC 25922, sensitive strain, read-out: MIC Ec1
[27] = ATCC25923, read-out: MIC Sa26 + 10% SH, S. aureus Sa26 + 10% SH
[28] = ATCC25923, read-out: MIC Sa26 + 50% SH, S. aureus Sa26 + 50% SH
[29] = ATCC25923, S. aureus Sa26 ATCC 25923, sensitive strain, Mueller-Hinton Broth, 37° C., read-out: MIC Sa26
[30] = Study 1, 50 mg/kg PO BID, sample 24 h post infection

Sequence of DNA III Polymerase E (P10443 whole entry): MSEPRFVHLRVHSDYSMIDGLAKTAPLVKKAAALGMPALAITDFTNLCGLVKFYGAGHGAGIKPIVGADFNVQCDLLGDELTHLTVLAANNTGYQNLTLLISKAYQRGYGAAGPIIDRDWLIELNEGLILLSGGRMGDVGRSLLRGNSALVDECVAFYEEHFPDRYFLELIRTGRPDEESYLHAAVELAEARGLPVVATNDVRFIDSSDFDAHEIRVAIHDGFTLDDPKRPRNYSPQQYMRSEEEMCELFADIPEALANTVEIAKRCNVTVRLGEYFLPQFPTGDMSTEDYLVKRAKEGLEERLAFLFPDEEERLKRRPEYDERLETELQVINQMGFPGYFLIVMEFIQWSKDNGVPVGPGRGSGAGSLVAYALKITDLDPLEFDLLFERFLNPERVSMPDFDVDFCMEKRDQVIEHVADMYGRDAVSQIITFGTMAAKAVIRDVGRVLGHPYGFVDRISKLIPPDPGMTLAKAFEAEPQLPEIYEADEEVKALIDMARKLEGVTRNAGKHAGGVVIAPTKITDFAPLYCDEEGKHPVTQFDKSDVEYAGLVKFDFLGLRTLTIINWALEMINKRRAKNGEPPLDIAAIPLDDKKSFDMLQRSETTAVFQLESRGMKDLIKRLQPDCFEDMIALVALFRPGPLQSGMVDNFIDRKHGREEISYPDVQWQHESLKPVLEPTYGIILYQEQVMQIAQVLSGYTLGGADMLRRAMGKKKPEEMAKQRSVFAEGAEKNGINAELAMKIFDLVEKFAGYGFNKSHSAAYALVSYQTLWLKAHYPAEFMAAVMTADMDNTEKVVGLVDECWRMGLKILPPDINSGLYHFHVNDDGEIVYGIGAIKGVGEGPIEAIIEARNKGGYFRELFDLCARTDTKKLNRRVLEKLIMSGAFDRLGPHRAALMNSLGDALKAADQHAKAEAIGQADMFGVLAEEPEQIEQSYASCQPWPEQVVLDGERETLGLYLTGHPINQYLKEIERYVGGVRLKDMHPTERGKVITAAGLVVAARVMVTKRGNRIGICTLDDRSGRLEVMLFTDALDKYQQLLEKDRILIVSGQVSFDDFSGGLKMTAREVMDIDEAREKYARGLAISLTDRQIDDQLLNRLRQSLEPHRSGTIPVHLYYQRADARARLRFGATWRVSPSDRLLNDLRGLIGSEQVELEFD
Sequence of DNA Polymerase IIIα (DnaE) from Staphylococcus aureus (Q6GG04 1-1022): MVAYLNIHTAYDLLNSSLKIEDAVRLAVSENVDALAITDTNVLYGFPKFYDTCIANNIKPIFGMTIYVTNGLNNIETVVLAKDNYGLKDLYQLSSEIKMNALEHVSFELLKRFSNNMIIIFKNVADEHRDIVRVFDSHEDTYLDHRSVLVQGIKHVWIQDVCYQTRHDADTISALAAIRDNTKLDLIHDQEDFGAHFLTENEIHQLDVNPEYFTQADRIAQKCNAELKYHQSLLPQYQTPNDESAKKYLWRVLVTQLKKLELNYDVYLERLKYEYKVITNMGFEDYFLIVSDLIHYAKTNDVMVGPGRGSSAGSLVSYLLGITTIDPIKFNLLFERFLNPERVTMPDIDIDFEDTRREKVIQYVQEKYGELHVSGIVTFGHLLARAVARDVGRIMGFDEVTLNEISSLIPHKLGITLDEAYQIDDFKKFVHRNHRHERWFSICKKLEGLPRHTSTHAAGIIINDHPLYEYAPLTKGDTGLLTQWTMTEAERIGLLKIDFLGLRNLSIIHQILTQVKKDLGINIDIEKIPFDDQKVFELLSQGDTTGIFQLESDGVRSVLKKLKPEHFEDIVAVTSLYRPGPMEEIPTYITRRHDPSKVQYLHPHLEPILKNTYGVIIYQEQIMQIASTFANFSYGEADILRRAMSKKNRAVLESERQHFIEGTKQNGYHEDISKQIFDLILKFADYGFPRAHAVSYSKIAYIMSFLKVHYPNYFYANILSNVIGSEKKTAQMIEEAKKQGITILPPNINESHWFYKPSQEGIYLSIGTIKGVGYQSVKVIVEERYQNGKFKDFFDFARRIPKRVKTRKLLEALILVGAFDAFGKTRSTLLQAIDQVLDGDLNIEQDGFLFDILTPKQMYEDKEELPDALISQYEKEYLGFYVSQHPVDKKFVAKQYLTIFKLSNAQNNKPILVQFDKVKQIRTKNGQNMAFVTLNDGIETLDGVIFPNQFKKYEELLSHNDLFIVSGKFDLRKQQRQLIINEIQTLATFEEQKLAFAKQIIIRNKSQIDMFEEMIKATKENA

SMILES | MIC [1] [mg/L] | MIC [3] [mg/L] | MIC [4] [mg/L] | MIC [5] [mg/L] | MIC ([6]; ATCC13709, read-out: MIC Sa1) [mg/L] | IC50 [7] [µM] | MIC ([8]; NCTC6571, read-out: MIC Sa4) [mg/L] | MIC [9] [mg/L] | IC50 [10, 18] [µM] | MIC [11] [mg/L] | MIC ([12]; ATCC25922, read-out: MIC Ec1) [mg/L] | MIC ([13]; ATCC25923, read-out: MIC Sa26) [mg/L] | MIC [13, 19] [mg/L] | MIC [14] [mg/L] | MIC [6, 24] [mg/L] | MIC [8, 25] [mg/L] | MIC [12, 26] [mg/L] | MIC [13, 27] [mg/L] | MIC [13, 28] [mg/L] | MIC [13, 29] [mg/L] | also measured
COC[C@H]1[C@@H](O)[C@@H]2O[C@@]34/C(C)=C/[C@@H](C)[C@@H]([C@H](O)COC)OC(=O)[C@H](COC)[C@H]3C=C[C@@H]2[C@H]4[C@@H]1O [Branimycin, reference compound] | 1 (≈ 2.07 µM) | > 64 | 64 (≈ 133 µM) | 8 (≈ 16.6 µM) | 64 (≈ 133 µM) | 0.00207 to 2.07 | 64 (≈ 133 µM) | > 64 | 2.07 to 20.7 | > 64 | > 64 | 64 (≈ 133 µM) | 64 | > 64 | – | – | – | – | – | – | Active [2, 17]: N; Log reduction vs. untreated [2, 17]: −0.3; MIC [13, 20]: 64 mg/L
COC[C@@H]1[C@@H](O)[C@@H]2[C@H]3C=C[C@@H]4[C@@H](COC)C(=O)O[C@H]([C@H](O)COC)[C@H](C)/C=C(\C)[C@@]24O[C@H]3[C@@H]1OC(=O)c1cc(F)c[nH]1 [Compound 19, 8-O-4-Fluoro-1H-pyrrole-2′-carbonylbranimycin] | 0.5 (≈ 0.842 µM) | > 64 | 0.5 (≈ 0.842 µM) | 64 (≈ 108 µM) | – | 0.00168 to 1.68 | – | > 64 | – | > 64 | – | – | – | > 64 | 0.5 (≈ 0.842 µM) | 0.25 (≈ 0.421 µM) | > 64 | 0.5 | 1 | 0.5 (≈ 0.842 µM) | Active [2, 21]: Y; Log reduction vs. untreated [2, 21]: −3.28; log reduction at 50 mg/kg [15, 22]: 3.56; log reduction at 25 mg/kg ([15]; Staphylococcus aureus, MRSA, in Mus musculus, po, 72 h, read-out: Log reduction vs. untreated, Study 6, 25 mg/kg PO QD, sample 72 h post infection): 3.65; Active [15, 23]: Y; Active ([15]; Study 6, 25 mg/kg PO QD, sample 72 h post infection): Y; IC50 [10]: 1.68 to 16.8 µM
COCC(=NO)[C@H]1OC(=O)[C@H](COC)[C@H]2C=C[C@H]3[C@H]4O[C@]2(/C(C)=C/[C@H]1C)[C@@H]3[C@H](O)[C@@H](COC)[C@H]4OC(=O)c1ccc[nH]1 [Compound 25, 18-Deoxy-18-oximino-8-O-1H-pyrrole-2′-carbonylbranimycin] | 0.25 (≈ 0.425 µM) | > 64 | ≤ 0.06 | 0.5 (≈ 0.849 µM) | – | 0.0017 to 1.7 | – | > 64 | 1.7 to 17 | > 64 | – | – | – | > 64 | 0.25 (≈ 0.425 µM) | 0.25 (≈ 0.425 µM) | > 64 | 0.5 | 1 | 0.5 (≈ 0.849 µM) | log reduction at 50 mg/kg ([15]; Staphylococcus aureus, MRSA, in Mus musculus, Study 1, 50 mg/kg PO BID, sample 24 h post infection, read-out: Log reduction vs. untreated): 0.36; Active [15, 30]: N
COC[C@@H]1[C@@H](O)[C@@H]2[C@H]3C=C[C@@H]4[C@@H](COC)C(=O)O[C@H]([C@H](O)COC)[C@H](C)/C=C(\C)[C@@]24O[C@H]3[C@@H]1OC(=O)c1cc(Cl)c[nH]1 [Compound 28, 8-O-4-Chloro-1H-pyrrole-2′-carbonylbranimycin] | 1 (≈ 1.64 µM) | 64 (≈ 105 µM) | 4 (≈ 6.56 µM) | 64 (≈ 105 µM) | – | 0.00164 to 1.64 | – | > 64 | – | 64 (≈ 105 µM) | – | – | – | 64 (≈ 105 µM) | 2 (≈ 3.28 µM) | 4 (≈ 6.56 µM) | > 64 | 4 | 16 | 4 (≈ 6.56 µM) | log reduction at 50 mg/kg [15, 22]: 1.64; Active [15, 23]: N; IC50 [10]: 1.64 to 16.4 µM
COCC(=NO)[C@H]1OC(=O)[C@H](COC)[C@H]2C=C[C@H]3[C@H]4O[C@]2(/C(C)=C/[C@H]1C)[C@@H]3[C@H](O)[C@@H](COC)[C@H]4OC(=O)c1cc(F)c[nH]1 [Compound 40, 18-Deoxy-18-oximino-8-O-4-Fluoro-1H-pyrrole-2′-carbonylbranimycin] | 0.25 (≈ 0.412 µM) | > 64 | 0.25 (≈ 0.412 µM) | 16 (≈ 26.4 µM) | – | 0.00165 to 1.65 | – | > 64 | 0.00165 to 1.65 | > 64 | – | – | – | 64 (≈ 105 µM) | 0.25 (≈ 0.412 µM) | 0.12 (≈ 0.198 µM) | > 64 | 1 | 1 | 1 (≈ 1.65 µM) | –
C[C@H]1COc2c(N3CCN(C)CC3)c(F)cc3c(=O)c(C(=O)O)cn1c23 [Levofloxacin, reference compound] | – | – | – | – | – | – | – | – | – | – | – | – | – | – | – | – | – | – | – | – | Active [16]: N; Log reduction vs. untreated [16]: −1.00; log reduction at 50 mg/kg ([15]; Staphylococcus aureus, MRSA, in Mus musculus, po, 24 h, read-out: Log reduction vs. untreated, Study 1, 50 mg/kg PO BID, sample 24 h post infection): 0.32; log reduction at 50 mg/kg ([15]; Staphylococcus aureus, MRSA, in Mus musculus, po, 24 h, read-out: Log reduction vs. untreated, Study 2, 50 mg/kg PO BID, sample 24 h post infection): 0.55; log reduction at 50 mg/kg [15, 22]: -1.17; Active [15, 30]: N; Active ([15]; Study 2, 50 mg/kg PO BID, sample 24 h post infection): N; Active [15, 23]: N
COC[C@@H]1[C@@H](O)[C@@H]2[C@H]3C=C[C@@H]4C[C@H](O)C(=O)O[C@H]([C@H](O)COC)[C@H](C)/C=C(\C)[C@@]24O[C@H]3[C@@H]1OC(=O)c1ccc[nH]1 [Nargenicin B1, reference compound] | 2 (≈ 3.56 µM) | > 64 | 0.5 (≈ 0.89 µM) | 16 (≈ 28.5 µM) | 1 (≈ 1.78 µM) | 0.00178 to 1.78 | 0.5 (≈ 0.89 µM) | > 64 | > 17.8 | > 64 | > 64 | 2 (≈ 3.56 µM) | 2 | > 64 | – | – | – | – | – | – | MIC [13, 20]: 1 mg/L
CO[C@H]1C[C@H]2C=C[C@H]3[C@H]4O[C@]2(/C(C)=C/[C@@H](C)[C@@H]([C@@H](C)O)OC1=O)[C@@H]3[C@H](O)[C@@H](C)[C@H]4O [Nodusmicin, reference compound] | 0.25 (≈ 0.592 µM) | 64 (≈ 151 µM) | > 64 | 1 (≈ 2.37 µM) | > 64 | 0.00237 to 2.37 | > 64 | 64 (≈ 151 µM) | 2.37 to 23.7 | 32 (≈ 75.7 µM) | > 64 | > 64 | > 64 | 64 (≈ 151 µM) | – | – | – | – | – | – | MIC [13, 20]: > 64 mg/L
